Measured values taken from PubChem BioAssay (NCI).
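Exposure lasted 48 hours, with cells grown in 96-well plates and compounds tested at five concentrations. Here, GI50 denotes the concentration required for 50% inhibition of growth. TGI: total growth inhibition.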

How the values were obtained:
Assay in all cases: NCI anticancer screen, dose series, 48 h
MCF7 breast = tested on: MCF7 breast
HS 578T breast = tested on: HS 578T breast
DLD-1 colon = tested on: DLD-1 colon
DMS 114 small cell lung = tested on: DMS 114 small cell lung
KM20L2 colon = tested on: KM20L2 colon
XF 498 CNS = tested on: XF 498 CNS
M19-MEL melanoma = tested on: M19-MEL melanoma
RXF-631 renal = tested on: RXF-631 renal
MDA-N = tested on: MDA-N

| Compound | GI50 (MCF7 breast) | TGI (MCF7 breast) | GI50 (HS 578T breast) | TGI (HS 578T breast) | TGI (DLD-1 colon) | TGI (DMS 114 small cell lung) | TGI (KM20L2 colon) | TGI (XF 498 CNS) | TGI (M19-MEL melanoma) | TGI (RXF-631 renal) | TGI (MDA-N) |
| --- | --- | --- | --- | --- | --- | --- | --- | --- | --- | --- | --- |
| COC(=O)c1ccc2c(c1)c1c(C)c3cnccc3c(C)c1n2C | 0.109 µM | 0.511 µM | 0.108 µM | 0.584 µM |  |  |  |  |  |  |  |
| Cc1cc2occ(C)c(=O)c2c2c1OC(C)(C)S2 |  |  |  |  | > 100 µM | > 100 µM | > 100 µM | > 100 µM | > 100 µM |  |  |
| O=C(N/N=C/c1ccc(F)cc1)c1[nH]c2ccc(I)cc2c1-c1ccccc1 | 0.339 µM | 18.6 µM | 0.235 µM | 0.642 µM |  |  |  |  |  |  |  |
| C=C1C(=O)O[C@H]2[C@H]1CC/C(COC(=O)c1ccc(C(=O)O)s1)=C\CC[C@@]1(C)O[C@@H]21 |  |  | 4.79 µM | 64.5 µM |  |  |  |  |  |  |  |
| c1cc2c(cnc3cscc32)s1 |  |  |  |  | > 100 µM | > 100 µM |  | > 100 µM | > 100 µM | > 100 µM |  |
| CN(C)CN1C(=O)S/C(=C2\C(=O)N(CN(C)C)c3ccccc32)C1=O |  | > 100 µM |  | > 100 µM |  |  |  |  |  |  |  |
| Cn1c(=O)c2c(nc3n2CCC(=O)N3)n(C)c1=O |  |  |  |  | > 100 µM | > 100 µM | > 100 µM |  | > 100 µM | > 100 µM |  |
| Cc1ccc(-c2cc3nc(-c4ccccc4)nc(C(Cl)Cl)n3n2)cc1 | 0.845 µM | 4.55 µM | 0.932 µM | 2.31 µM |  |  |  |  |  |  |  |
| CC1(C)C(=O)/C(=C\c2ccco2)C[C@]2(C)[C@H]3CC=C4[C@@H]5C[C@](C)(C(=O)O)CC[C@]5(C)CC[C@@]4(C)[C@]3(C)CC[C@@H]12 | 5.42 µM | 26.2 µM | 18.4 µM | > 100 µM |  |  |  |  |  |  |  |
| ClCCn1cnc2c(SCc3ccccc3)ncnc21 | 1.65 µM | > 100 µM | 15.4 µM | > 100 µM |  |  |  |  |  |  |  |
| Cc1c(C(=O)CC(=O)C(=O)NC2C3CC4CC(C3)CC2C4)[n+](=O)c2ccccc2n1[O-] (centres undefined) |  |  |  |  |  | > 100 µM | > 100 µM | > 100 µM | > 100 µM | > 100 µM |  |
| CC(=O)O/C(C)=C\C(=O)O/N=C(\N)c1ccc(C)cc1 |  |  |  |  | 50.9 µM | 45 µM | > 100 µM | > 100 µM |  | 61.1 µM |  |
| C=C1C(O)C2C(=C(CC(C)C)C13CC3)C(=O)C(C)(C)C2OC (centres undefined) | > 100 µM | > 100 µM | > 100 µM | > 100 µM |  |  |  |  |  |  |  |
| O=C(O)c1nnsc1COCc1ccccc1 |  | > 100 µM |  | > 100 µM |  |  |  |  |  |  | > 100 µM |
| CCOC(=O)/C=C(/CN1C(=O)c2ccccc2C1=O)c1ccccc1 |  |  |  |  | > 100 µM | > 100 µM | > 100 µM | > 100 µM | > 100 µM |  |  |
| O=S(=O)(O)c1ccc2cc(N=Nc3cc(S(=O)(=O)O)c4cccnc4c3O)ccc2c1 |  | > 100 µM |  | > 100 µM |  |  |  |  |  |  | > 100 µM |
| O=Nc1c2cccnc2n2nnc3ccc(Cl)cc3c12 | 0.792 µM | 3.39 µM | 2.84 µM | 9.89 µM |  |  |  |  |  |  |  |
| OC1CCC(C2C3CCCCC3C3CCCCC3C2C2CCC(O)CC2)CC1 (centres undefined) |  | 34.3 µM |  | > 100 µM |  |  |  |  |  |  |  |
| CCCCCCCCCCCCC(SCCNC(=O)CCNC(=O)C(O)C(C)(C)COP(=O)(O)OP(=O)(O)OCC1OC(n2cnc3c(N)ncnc32)C(O)C1OP(=O)(O)O)C(=O)NCC(N)=O (centres undefined) |  |  |  |  | > 100 µM | > 100 µM | > 100 µM |  | > 100 µM | > 100 µM |  |

| Compound | GI50 (MCF7 breast) | TGI (MCF7 breast) | GI50 (HS 578T breast) | TGI (HS 578T breast) | TGI (DLD-1 colon) | TGI (DMS 114 small cell lung) | TGI (KM20L2 colon) | TGI (XF 498 CNS) | TGI (M19-MEL melanoma) | TGI (RXF-631 renal) | TGI (MDA-N) |
| --- | --- | --- | --- | --- | --- | --- | --- | --- | --- | --- | --- |
| C=CCN(N=O)C(=O)N(CCC)CCCC(NC(C)=O)C(=O)NCc1ccccc1 (centres undefined) |  |  |  |  |  | > 100 µM | > 100 µM | > 100 µM | > 100 µM | > 100 µM |  |
| O=C1/C(=C\c2cccs2)Oc2ccccc21 |  | > 100 µM |  | > 100 µM |  |  |  |  |  |  | > 100 µM |
| COc1ccc(N=Cc2ccc(N(CCC#N)CCC#N)cc2)cc1 |  | > 100 µM |  | > 100 µM | > 100 µM | > 100 µM | > 100 µM | > 100 µM | > 91.8 µM |  | > 100 µM |
| CN(C)CCNc1cccc2sc3ccc(O)cc3c(=O)c12 | 1.14 µM | 2.96 µM | 1.75 µM | 11.8 µM |  |  |  |  |  |  |  |
| Cc1ccc(N2C(=O)C(Cl)=C(Nc3cccc(O)c3)C2=O)cc1Cl | 6.16 µM | 32 µM | 17.4 µM | 42.1 µM |  |  |  |  |  |  |  |
| CCOC(=O)c1c2ccc(/C=C/C(=O)OC)ccc-2c(C(=O)OCC)c1N |  |  |  |  | > 100 µM | > 100 µM | > 100 µM |  | > 100 µM |  |  |
| C=C(CNCCO)[C@@H]1CC[C@]2(CO)CC[C@]3(C)[C@H](CC[C@@H]4[C@@]5(C)CCC(NCCc6ccc(O)cc6)C(C)(C)[C@@H]5CC[C@]43C)[C@@H]12 (some centres undefined) | 0.339 µM | 1.48 µM | 1.49 µM | 3.7 µM |  |  |  |  |  |  |  |
| O=C1c2cccc3cc([N+](=O)[O-])cc(c23)C(=O)N1CCCN1CCN(CCCN2C(=O)c3cccc4cc([N+](=O)[O-])cc(c34)C2=O)CC1 |  |  |  |  | > 100 µM |  | > 100 µM | 4.06 µM | 2.56 µM | 3.21 µM |  |
| N#C/C(=C(\O)C(=O)O)c1ccc(-c2cccc3ccccc23)cc1 |  | > 100 µM |  | > 100 µM |  |  |  |  |  |  | > 100 µM |
| Cc1ccc2c(c1)sc(-c1ccc(N(C)C)cc1)[n+]2C | 0.745 µM | 28.3 µM | 6.39 µM | > 87.7 µM |  |  |  |  |  |  |  |
| O=c1oc2c3ccc4ccccc4c3n(Cc3nc4ccccc4[nH]3)c2c2ccccc12 |  |  |  |  | > 100 µM | > 100 µM | > 100 µM |  | > 100 µM |  |  |
| COc1ccc2c(C3(O)CCNCC3)c[nH]c2c1 |  |  |  |  | > 100 µM |  | > 100 µM |  | > 100 µM | > 100 µM |  |
| O=C1NC(=O)C(c2ccccc2Cl)=C1Nc1cccc(O)c1 | 3.99 µM | > 20.7 µM | 1.82 µM | 17.7 µM |  |  |  |  |  |  |  |
| CC1(C)OC2C(=O)OC(COCc3ccccc3)C2O1 (centres undefined) |  |  |  |  | > 100 µM |  | > 100 µM |  | > 100 µM | > 100 µM |  |
| OCCCNCc1ccccn1 |  | > 100 µM |  | > 100 µM |  |  |  |  |  |  | > 100 µM |
| CCOC(OC1=C(C#N)CCC1)C(CC)[Se]c1ccccc1 (centres undefined) |  |  |  |  | 41.2 µM | 10.4 µM | 64.7 µM | 49.7 µM | 30.3 µM |  |  |
| c1ccc(COc2ccc3[nH]c4c(ncc5[nH]c6ccccc6c54)c3c2)cc1 |  |  |  |  | 17.7 µM | 38.3 µM | 20.4 µM | 26.6 µM |  |  |  |
| NC(=O)c1ccccc1NC(=O)C(=O)C(c1cnc2ccc([N+](=O)[O-])cc2n1)[N+](=O)[O-] (centres undefined) |  | > 100 µM |  | > 100 µM |  |  |  |  |  |  |  |
